In ChEMBL document CHEMBL1201862, “PubChem BioAssay data set” (2004):
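All cell lines were grown in 96-well plates and treated with compound for 48 hours. GI50 marks 50% less growth.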 The source made the active and inactive calls. Rule as the data show it: active = GI50 up to about 1.1 µM and inactive = higher.

Assays:
Test in all cases: NCI tumour cell line growth inhibition, 48 h
[1] = test system: COLO 205
[2] = test system: OVCAR-5
[3] = test system: RXF 393
[4] = test system: UO-31
[5] = test system: MDA-N
[6] = test system: OVCAR-4
[7] = test system: SF-268
[8] = test system: OVCAR-3
[9] = test system: SF-295
[10] = test system: A498
[11] = test system: A549
[12] = test system: SN12C
[13] = test system: EKVX
[14] = test system: PC-3
[15] = test system: IGROV-1
[16] = test system: CCRF-CEM
[17] = test system: HCT-15
[18] = test system: KM12
[19] = test system: CAKI-1
[20] = test system: SNB-75

Structure (SMILES)	GI50 [1]	GI50 [2]	GI50 [3]	GI50 [4]	GI50 [5]	GI50 [6]	GI50 [7]	GI50 [8]	GI50 [9]	GI50 [10]	GI50 [11]	GI50 [12]	GI50 [13]	GI50 [14]	GI50 [15]	GI50 [16]	GI50 [17] [µM]	GI50 [18]	GI50 [19]	GI50 [20]
COc1ccc(N(CC(=O)O)N=O)cc1	> 100 µM (inactive)	> 100 µM (inactive)	> 100 µM (inactive)	> 100 µM (inactive)	> 100 µM (inactive)	> 100 µM (inactive)	> 100 µM (inactive)	> 100 µM (inactive)	> 100 µM (inactive)	> 100 µM (inactive)	> 100 µM (inactive)	> 100 µM (inactive)	> 100 µM (inactive)	> 100 µM (inactive)	> 100 µM (inactive)	> 100 µM (inactive)	> 100	> 100 µM (inactive)	> 100 µM (inactive)	–
COC(=O)Nc1cc(OCCCOC(C)=O)c2[nH]c(C(=O)OC)cc2c1C[C@H](O)CO	> 100 µM (inactive)	> 100 µM (inactive)	–	> 100 µM (inactive)	> 100 µM (inactive)	> 100 µM (inactive)	–	> 100 µM (inactive)	> 100 µM (inactive)	> 100 µM (inactive)	> 100 µM (inactive)	> 100 µM (inactive)	72.1 µM (inactive)	> 100 µM (inactive)	90.4 µM (inactive)	> 100 µM (inactive)	> 100	> 100 µM (inactive)	> 100 µM (inactive)	–
N[C@H](CCC(=O)NCP(=O)(O)O)C(=O)O	> 100 µM (inactive)	> 100 µM (inactive)	–	> 100 µM (inactive)	> 100 µM (inactive)	–	–	> 100 µM (inactive)	5.33 µM (inactive)	> 100 µM (inactive)	> 100 µM (inactive)	> 100 µM (inactive)	> 100 µM (inactive)	> 100 µM (inactive)	> 100 µM (inactive)	–	> 100	> 100 µM (inactive)	–	–
Cc1ccc2c(c1)CC1(Cc3ccccc3C1=O)C2=O (stereo not given)	> 100 µM (inactive)	55.6 µM (inactive)	> 100 µM (inactive)	> 100 µM (inactive)	> 100 µM (inactive)	> 100 µM (inactive)	> 100 µM (inactive)	> 100 µM (inactive)	> 100 µM (inactive)	> 100 µM (inactive)	> 100 µM (inactive)	> 100 µM (inactive)	> 100 µM (inactive)	> 100 µM (inactive)	> 100 µM (inactive)	> 100 µM (inactive)	> 100	> 100 µM (inactive)	–	> 100 µM (inactive)
CN(C)CCNC(=O)c1cccc(C(=O)Nc2ccccc2)c1[N+](=O)[O-]	54.2 µM (inactive)	> 100 µM (inactive)	–	> 100 µM (inactive)	> 100 µM (inactive)	–	> 100 µM (inactive)	> 100 µM (inactive)	> 100 µM (inactive)	> 100 µM (inactive)	> 100 µM (inactive)	> 100 µM (inactive)	–	> 100 µM (inactive)	> 100 µM (inactive)	> 100 µM (inactive)	> 100	> 100 µM (inactive)	> 100 µM (inactive)	34.8 µM (inactive)
CC[n+]1[b-](C(C)(C)C)n(/N=C/C(C)(C)C)[b-](C(C)(C)C)[n+]1CC	> 100 µM (inactive)	> 100 µM (inactive)	> 100 µM (inactive)	> 100 µM (inactive)	> 100 µM (inactive)	> 100 µM (inactive)	> 100 µM (inactive)	> 100 µM (inactive)	> 100 µM (inactive)	–	> 100 µM (inactive)	> 100 µM (inactive)	> 100 µM (inactive)	> 100 µM (inactive)	> 100 µM (inactive)	66.1 µM (inactive)	> 100	> 100 µM (inactive)	> 100 µM (inactive)	> 100 µM (inactive)
O=C(/C=C/C(=O)N1CCCC1)N1CCCC1	> 100 µM (inactive)	> 100 µM (inactive)	> 100 µM (inactive)	> 100 µM (inactive)	> 100 µM (inactive)	> 100 µM (inactive)	> 100 µM (inactive)	> 100 µM (inactive)	> 100 µM (inactive)	> 100 µM (inactive)	> 100 µM (inactive)	> 100 µM (inactive)	> 100 µM (inactive)	> 100 µM (inactive)	> 100 µM (inactive)	> 100 µM (inactive)	> 100	> 100 µM (inactive)	> 100 µM (inactive)	–
CC1=CC(=O)N(n2c(Cc3ccccc3)n[nH]c2=O)C1=O	> 100 µM (inactive)	> 100 µM (inactive)	> 100 µM (inactive)	> 100 µM (inactive)	> 100 µM (inactive)	> 100 µM (inactive)	> 100 µM (inactive)	> 100 µM (inactive)	> 100 µM (inactive)	> 100 µM (inactive)	> 100 µM (inactive)	> 100 µM (inactive)	> 100 µM (inactive)	93.5 µM (inactive)	> 100 µM (inactive)	23.3 µM (inactive)	> 100	> 100 µM (inactive)	> 100 µM (inactive)	–
COC(=O)C1(C(=O)OC)CC2=C(S(=O)(=O)c3ccccc3)C[C@@H](C#N)[C@H]2C1	> 100 µM (inactive)	> 100 µM (inactive)	–	> 100 µM (inactive)	> 100 µM (inactive)	> 100 µM (inactive)	> 100 µM (inactive)	25.2 µM (inactive)	> 100 µM (inactive)	> 100 µM (inactive)	> 100 µM (inactive)	> 100 µM (inactive)	> 100 µM (inactive)	> 100 µM (inactive)	52 µM (inactive)	> 100 µM (inactive)	37.9	> 100 µM (inactive)	> 100 µM (inactive)	> 100 µM (inactive)
CC(=O)OCc1ccc2oc(=O)c(C(=O)Oc3cccc(Cl)c3)cc2c1	30.3 µM (inactive)	> 100 µM (inactive)	33.7 µM (inactive)	22.1 µM (inactive)	> 100 µM (inactive)	> 100 µM (inactive)	> 100 µM (inactive)	> 100 µM (inactive)	> 100 µM (inactive)	–	> 100 µM (inactive)	54.5 µM (inactive)	> 100 µM (inactive)	19.1 µM (inactive)	63.5 µM (inactive)	> 100 µM (inactive)	35.5	61.5 µM (inactive)	42.9 µM (inactive)	37.8 µM (inactive)
Nc1nc(N)c2nc(CNc3ccc(C(=O)NC(CCCCNC(=O)c4ccccc4C(=O)O)C(=O)O)cc3)cnc2n1 (stereo not given)	0.01 µM (active)	> 85.3 µM (inactive)	0.01 µM (active)	0.00776 µM (active)	0.01 µM (active)	> 100 µM (inactive)	0.01 µM (active)	> 100 µM (inactive)	< 0.0332 µM (active)	0.0738 µM (active)	0.01 µM (active)	0.01 µM (active)	> 34.4 µM (inactive)	0.01 µM (active)	< 0.0113 µM (active)	0.01 µM (active)	0.01	0.01 µM (active)	0.01 µM (active)	–
